From PubChem BioAssay AID256 (DTP/NCI, 2004)
Inconclusive results and toxic doses are left out. How the source made its calls: active means survival T/C of 150% or more; inactive means T/C below 125% in these data.

Tested on: CD2F1 mice, L1210 leukemia ip, survival T/C
Assay: NCI In Vivo Anticancer Drug Screen. Data for tumor model L1210 Leukemia (intraperitoneal) in CD2F1 (CDF1) mice
Settings: higher = longer survival
Outline: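 Ratio T/C, where T is the treated-group value and C the vehicle-dosed control value, from mice implanted with a transplantable tumor.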

[1] = endpoint: mean survival time, dose: 100.0 mg/kg/injection, schedule: Q01DX009 (ip), vehicle: saline with Tween-80
[2] = endpoint: mean survival time, dose: 200.0 mg/kg/injection, schedule: Q01DX009 (ip), vehicle: saline with Tween-80
[3] = endpoint: mean survival time, dose: 400.0 mg/kg/injection, schedule: Q01DX009 (ip), vehicle: saline with Tween-80
[4] = endpoint: mean survival time, dose: 100.0 mg/kg/injection, schedule: Q01DX001 (ip), vehicle: saline
[5] = endpoint: mean survival time, dose: 100.0 mg/kg/injection, schedule: Q04DX003 (ip), vehicle: saline with Tween-80
[6] = endpoint: mean survival time, dose: 200.0 mg/kg/injection, schedule: Q01DX001 (ip), vehicle: saline
[7] = endpoint: mean survival time, dose: 200.0 mg/kg/injection, schedule: Q04DX003 (ip), vehicle: saline with Tween-80
[8] = endpoint: mean survival time, dose: 400.0 mg/kg/injection, schedule: Q04DX003 (ip), vehicle: saline with Tween-80
[9] = endpoint: mean survival time, dose: 50.0 mg/kg/injection, schedule: Q01DX009 (ip), vehicle: Klucel (hydroxypropylcellulose) (HPC)
[10] = endpoint: mean survival time, dose: 100.0 mg/kg/injection, schedule: Q01DX009 (ip), vehicle: Klucel (hydroxypropylcellulose) (HPC)
[11] = endpoint: mean survival time, dose: 200.0 mg/kg/injection, schedule: Q01DX009 (ip), vehicle: Klucel (hydroxypropylcellulose) (HPC)

Measured: T/C

N#Cc1nc(N)nc2c1ncn2-c1ccc(C(N)=O)cc1
inactive: endpoint: mean survival time, dose: 100.0 mg/kg/injection, schedule: Q01DX001 (ip), vehicle: saline with Tween-80 96 % of control | endpoint: mean survival time, dose: 200.0 mg/kg/injection, schedule: Q01DX001 (ip), vehicle: saline with Tween-80 101 % of control | endpoint: mean survival time, dose: 400.0 mg/kg/injection, schedule: Q01DX001 (ip), vehicle: saline with Tween-80 90 % of control

CCC(O)C[As](=O)(O)c1cccc(Cl)c1 (stereo not drawn)
inactive: endpoint: mean survival time, dose: 0.39 mg/kg/injection, schedule: Q01DX009 (ip), vehicle: saline 95 % of control | endpoint: mean survival time, dose: 0.78 mg/kg/injection, schedule: Q01DX009 (ip), vehicle: saline 97 % of control | endpoint: mean survival time, dose: 1.56 mg/kg/injection, schedule: Q01DX009 (ip), vehicle: saline 103 % of control | endpoint: mean survival time, dose: 3.13 mg/kg/injection, schedule: Q01DX009 (ip), vehicle: saline 114 % of control

COc1ccc(OC)c(NC(=O)Oc2ccc(F)cc2Cl)c1
inactive: [1] 101 % of control | [2] 104 % of control | [3] 102 % of control

CS(C)=C1C(=O)NC(=S)NC1=O
inactive: endpoint: median survival time, dose: 20.75 mg/kg/injection, schedule: Q01DX009 (ip), vehicle: saline with Tween-80 108 % of control | endpoint: median survival time, dose: 41.5 mg/kg/injection, schedule: Q01DX009 (ip), vehicle: saline with Tween-80 102 % of control | endpoint: median survival time, dose: 83.0 mg/kg/injection, schedule: Q01DX009 (ip), vehicle: saline with Tween-80 111 % of control | endpoint: median survival time, dose: 166.0 mg/kg/injection, schedule: Q01DX009 (ip), vehicle: saline with Tween-80 107 % of control

C=CC1(C)CCN=C(CCC(C(=O)OCC)C(=O)OCC)O1 (stereo not drawn)
inactive: endpoint: mean survival time, dose: 100.0 mg/kg/injection, schedule: Q01DX001 (ip), vehicle: saline sonified 103 % of control | endpoint: mean survival time, dose: 200.0 mg/kg/injection, schedule: Q01DX001 (ip), vehicle: saline sonified 97 % of control | endpoint: mean survival time, dose: 400.0 mg/kg/injection, schedule: Q01DX001 (ip), vehicle: saline sonified 100 % of control

CC1(C)OCC(C2OC3OC(C)(C)OC3C2O)O1 (stereo not drawn)
inactive: [4] 105 % of control | [5] 100 % of control | endpoint: mean survival time, dose: 100.0 mg/kg/injection, schedule: Q04DX003 (ip), vehicle: saline 97 % of control | [6] 103 % of control | [7] 95 % of control | endpoint: mean survival time, dose: 200.0 mg/kg/injection, schedule: Q04DX003 (ip), vehicle: saline 96 % of control | endpoint: mean survival time, dose: 400.0 mg/kg/injection, schedule: Q01DX001 (ip), vehicle: saline 103 % of control | [8] 103 % of control | endpoint: mean survival time, dose: 400.0 mg/kg/injection, schedule: Q04DX003 (ip), vehicle: saline 100 % of control

O=C(O)c1ccccc1C(=O)NCc1ccccn1
inactive: [9] 90 % of control | [10] 97 % of control | [11] 101 % of control

O=C(NO)Nc1ccccc1
inactive: endpoint: mean survival time, dose: 8.0 mg/kg/injection, schedule: Q03HX024 (ip), vehicle: other 101 % of control | endpoint: mean survival time, dose: 16.0 mg/kg/injection, schedule: Q03HX024 (ip), vehicle: other 101 % of control | endpoint: mean survival time, dose: 32.0 mg/kg/injection, schedule: Q03HX024 (ip), vehicle: other 101 % of control | endpoint: mean survival time, dose: 62.0 mg/kg/injection, schedule: Q03HX024 (ip), vehicle: saline with Tween-80 89 % of control | endpoint: mean survival time, dose: 64.0 mg/kg/injection, schedule: Q03HX024 (ip), vehicle: other 95 % of control | endpoint: mean survival time, dose: 93.0 mg/kg/injection, schedule: Q03HX024 (ip), vehicle: saline with Tween-80 86 % of control | endpoint: mean survival time, dose: 128.0 mg/kg/injection, schedule: Q03HX024 (ip), vehicle: other 92 % of control

COc1cccc(OC)c1C(c1c(OC)cccc1OC)c1c(OC)cccc1OC
inactive: [1] 98 % of control | [2] 103 % of control | [3] 102 % of control

COC(=O)c1cocc1C(=O)OC
inactive: endpoint: mean survival time, dose: 100.0 mg/kg/injection, schedule: Q04DX002 (ip), vehicle: saline with Tween-80 95 % of control | endpoint: mean survival time, dose: 200.0 mg/kg/injection, schedule: Q04DX002 (ip), vehicle: saline with Tween-80 91 % of control | endpoint: mean survival time, dose: 400.0 mg/kg/injection, schedule: Q04DX002 (ip), vehicle: saline with Tween-80 95 % of control

CC(C)c1cc2ccccc2s1
inactive: [4] 96 % of control | [6] 102 % of control

CCCCCCCCCCCCc1ccc(NC(C)=O)cc1
inactive: endpoint: mean survival time, dose: 100.0 mg/kg/injection, schedule: Q04DX003 (ip), vehicle: other 97 % of control | endpoint: mean survival time, dose: 200.0 mg/kg/injection, schedule: Q04DX003 (ip), vehicle: other 95 % of control | endpoint: mean survival time, dose: 400.0 mg/kg/injection, schedule: Q04DX003 (ip), vehicle: other 100 % of control

C=CC(=O)O
inactive: endpoint: mean survival time, dose: 1.56 mg/kg/injection, schedule: Q04DX003 (ip), vehicle: saline with Tween-80 107 % of control | endpoint: mean survival time, dose: 3.12 mg/kg/injection, schedule: Q04DX003 (ip), vehicle: saline with Tween-80 109 % of control | endpoint: mean survival time, dose: 6.25 mg/kg/injection, schedule: Q01DX009 (ip), vehicle: saline with Tween-80 97 % of control | endpoint: mean survival time, dose: 6.25 mg/kg/injection, schedule: Q04DX003 (ip), vehicle: Klucel (hydroxypropylcellulose) (HPC) 90 % of control | endpoint: mean survival time, dose: 6.25 mg/kg/injection, schedule: Q04DX003 (ip), vehicle: saline with Tween-80 101 % of control | endpoint: mean survival time, dose: 9.2 mg/kg/injection, schedule: Q01DX009 (ip), vehicle: acetone 89 % of control | endpoint: mean survival time, dose: 12.5 mg/kg/injection, schedule: Q01DX009 (ip), vehicle: saline with Tween-80 92 % of control | endpoint: mean survival time, dose: 12.5 mg/kg/injection, schedule: Q04DX003 (ip), vehicle: Klucel (hydroxypropylcellulose) (HPC) 96 % of control | endpoint: mean survival time, dose: 12.5 mg/kg/injection, schedule: Q04DX003 (ip), vehicle: saline with Tween-80 91 % of control | endpoint: mean survival time, dose: 25.0 mg/kg/injection, schedule: Q04DX003 (ip), vehicle: saline with Tween-80 97 % of control

CC(C)=CC(=O)OC1C2C(C)=CC(=O)C(O)C2(C)C2C3(O)OCC24C(CC(=O)OC14)C(C)C3O (stereo not drawn)
active: endpoint: mean survival time, dose: 2.0 mg/kg/injection, schedule: Q01DX009 (ip), vehicle: saline with Tween-80 151 % of control | endpoint: median survival time, dose: 2.0 mg/kg/injection, schedule: Q01DX009 (ip), vehicle: distilled water + Tween-80 + alcohol 153 % of control
inactive: endpoint: mean survival time, dose: 0.25 mg/kg/injection, schedule: Q01DX009 (ip), vehicle: distilled water + Tween-80 110 % of control | endpoint: mean survival time, dose: 0.5 mg/kg/injection, schedule: Q01DX009 (ip), vehicle: distilled water + Tween-80 124 % of control | endpoint: mean survival time, dose: 1.0 mg/kg/injection, schedule: Q01DX009 (ip), vehicle: distilled water + Tween-80 112 % of control | endpoint: median survival time, dose: 0.25 mg/kg/injection, schedule: Q01DX009 (ip), vehicle: distilled water + Tween-80 + alcohol 122 % of control | endpoint: median survival time, dose: 0.5 mg/kg/injection, schedule: Q01DX009 (ip), vehicle: distilled water + Tween-80 + alcohol 124 % of control

COc1ccc2c(ccc[n+]2C)c1
inactive: endpoint: mean survival time, dose: 5.0 mg/kg/injection, schedule: Q01DX009 (ip), vehicle: saline 106 % of control | endpoint: mean survival time, dose: 5.0 mg/kg/injection, schedule: Q04DX003 (ip), vehicle: saline 103 % of control | endpoint: mean survival time, dose: 10.0 mg/kg/injection, schedule: Q01DX009 (ip), vehicle: saline 107 % of control | endpoint: mean survival time, dose: 10.0 mg/kg/injection, schedule: Q04DX003 (ip), vehicle: saline 101 % of control | endpoint: mean survival time, dose: 12.5 mg/kg/injection, schedule: Q01DX009 (ip), vehicle: alcohol 107 % of control | endpoint: mean survival time, dose: 12.5 mg/kg/injection, schedule: Q04DX003 (ip), vehicle: acetone 104 % of control | endpoint: mean survival time, dose: 20.0 mg/kg/injection, schedule: Q01DX009 (ip), vehicle: saline 106 % of control | endpoint: mean survival time, dose: 20.0 mg/kg/injection, schedule: Q04DX003 (ip), vehicle: saline 109 % of control | endpoint: mean survival time, dose: 25.0 mg/kg/injection, schedule: Q01DX009 (ip), vehicle: alcohol 116 % of control | endpoint: mean survival time, dose: 25.0 mg/kg/injection, schedule: Q04DX003 (ip), vehicle: acetone 106 % of control | endpoint: mean survival time, dose: 50.0 mg/kg/injection, schedule: Q04DX003 (ip), vehicle: acetone 106 % of control

O=C(/C=C/c1ccc(Cl)cc1)c1ccccc1
inactive: [9] 94 % of control | [10] 102 % of control | [11] 105 % of control

CN(C)C(=S)Nc1ccccc1
inactive: [1] 95 % of control | [5] 93 % of control | [2] 95 % of control | [7] 90 % of control | [8] 88 % of control
